Values quoted from earlier work as cited in patent US20110293714A1, “PHARMACEUTICAL COMPOSITIONS SUITABLE FOR ORAL ADMINISTRATION OF DERIVATIZED INSULIN PEPTIDES” (priority 2008, published 2011).
Where two headings read alike, the source gives them in different places.

Details: static electric fields or relatively low frequencies

Structure (SMILES) | Dielectric constant, ∈* (303.2 Kelvin) | Dielectric constant, ∈* (293.2 Kelvin)
CC(O)CO (stereo not shown) [1,2-propanediol [propylene glycol], 1,2-propanediol] | 27.5 | –
CC(O)CCO (stereo not shown) [1,3-butanediol] | – | 28.8
OCCCO [1,3-propanediol] | – | 35.1
CCO [Ethanol] | – | 25.3
CC(C)O [Isopropanol] | – | 20.18
CO [Methanol] | – | 33.0
O [Water] | – | 80.1
